Read-outs that look alike come from different tables or passages of the source.
Columns and labels:
Experiment in all cases: KINOMEscan ScanTK
Type in all cases: binding
[1] = target: T1, ABL1-phosphorylated (Homo sapiens, UniProt P00519)
T1 construct: purchased Eurofins DiscoverX KINOMEscan (scanTK)

[2] = target: T2, CSK (Homo sapiens, UniProt P41240)
T2 construct: purchased Eurofins DiscoverX KINOMEscan (scanTK)

[3] = target: T3, EGFR(T790M) (Homo sapiens, UniProt P00533, T790M)
T3 construct: purchased Eurofins DiscoverX KINOMEscan (scanTK)

[4] = target: T4, EPHA8 (Homo sapiens, UniProt P29322)
T4 construct: purchased Eurofins DiscoverX KINOMEscan (scanTK)
T4 sequence (P29322 28-1005): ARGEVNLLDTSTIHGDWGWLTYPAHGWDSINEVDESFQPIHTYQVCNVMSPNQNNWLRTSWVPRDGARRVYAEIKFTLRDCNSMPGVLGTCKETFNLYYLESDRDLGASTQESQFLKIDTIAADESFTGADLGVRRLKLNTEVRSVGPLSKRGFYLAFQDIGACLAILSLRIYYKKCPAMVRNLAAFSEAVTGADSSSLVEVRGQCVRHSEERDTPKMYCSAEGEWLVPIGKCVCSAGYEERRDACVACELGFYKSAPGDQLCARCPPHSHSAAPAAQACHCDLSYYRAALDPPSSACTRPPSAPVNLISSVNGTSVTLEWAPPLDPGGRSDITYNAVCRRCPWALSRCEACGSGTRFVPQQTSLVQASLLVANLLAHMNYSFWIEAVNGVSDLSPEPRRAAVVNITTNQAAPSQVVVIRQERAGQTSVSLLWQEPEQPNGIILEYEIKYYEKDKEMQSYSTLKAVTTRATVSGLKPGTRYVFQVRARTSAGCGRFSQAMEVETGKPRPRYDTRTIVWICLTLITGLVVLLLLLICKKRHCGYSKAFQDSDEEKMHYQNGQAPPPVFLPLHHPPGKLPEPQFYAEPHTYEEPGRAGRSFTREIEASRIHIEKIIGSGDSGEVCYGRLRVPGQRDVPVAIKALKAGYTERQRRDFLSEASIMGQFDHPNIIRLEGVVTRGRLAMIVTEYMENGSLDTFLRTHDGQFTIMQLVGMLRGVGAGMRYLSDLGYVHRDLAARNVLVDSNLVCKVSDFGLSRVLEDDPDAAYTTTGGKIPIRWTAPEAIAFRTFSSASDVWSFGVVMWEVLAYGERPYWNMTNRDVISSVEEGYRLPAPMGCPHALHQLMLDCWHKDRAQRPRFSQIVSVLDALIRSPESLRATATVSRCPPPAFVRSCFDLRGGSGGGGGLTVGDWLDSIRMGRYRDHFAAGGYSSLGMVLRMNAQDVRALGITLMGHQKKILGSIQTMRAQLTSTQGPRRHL

[5] = target: T5, EPHB6 (Homo sapiens, UniProt O15197)
T5 construct: purchased Eurofins DiscoverX KINOMEscan (scanTK)
T5 sequence (O15197 32-1021): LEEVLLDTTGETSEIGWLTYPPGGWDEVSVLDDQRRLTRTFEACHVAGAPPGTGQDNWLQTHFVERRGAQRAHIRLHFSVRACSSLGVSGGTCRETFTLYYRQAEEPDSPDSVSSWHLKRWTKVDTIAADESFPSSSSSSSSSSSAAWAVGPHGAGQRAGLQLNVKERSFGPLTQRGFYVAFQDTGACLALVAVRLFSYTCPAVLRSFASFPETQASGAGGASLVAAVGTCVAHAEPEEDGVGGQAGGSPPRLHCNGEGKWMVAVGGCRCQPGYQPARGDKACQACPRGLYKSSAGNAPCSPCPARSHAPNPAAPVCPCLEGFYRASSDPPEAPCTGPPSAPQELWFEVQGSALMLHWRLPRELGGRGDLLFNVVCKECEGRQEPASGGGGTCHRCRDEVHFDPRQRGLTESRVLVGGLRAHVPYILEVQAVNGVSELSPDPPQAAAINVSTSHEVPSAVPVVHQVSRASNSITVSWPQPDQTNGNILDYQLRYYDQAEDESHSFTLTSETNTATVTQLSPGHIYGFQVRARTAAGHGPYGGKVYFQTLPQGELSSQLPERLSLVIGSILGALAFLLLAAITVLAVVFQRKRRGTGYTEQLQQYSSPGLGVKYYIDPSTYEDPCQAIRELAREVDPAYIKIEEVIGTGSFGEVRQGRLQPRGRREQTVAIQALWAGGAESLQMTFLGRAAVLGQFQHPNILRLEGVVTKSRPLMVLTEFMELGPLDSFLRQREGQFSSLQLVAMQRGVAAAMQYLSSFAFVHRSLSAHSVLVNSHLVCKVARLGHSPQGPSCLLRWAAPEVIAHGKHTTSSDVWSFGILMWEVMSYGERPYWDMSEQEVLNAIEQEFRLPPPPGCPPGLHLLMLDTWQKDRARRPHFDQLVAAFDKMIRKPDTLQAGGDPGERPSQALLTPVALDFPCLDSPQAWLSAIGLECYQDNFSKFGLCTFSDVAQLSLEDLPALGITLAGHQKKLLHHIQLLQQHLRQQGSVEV

[6] = target: T6, ERBB4 (Homo sapiens, UniProt Q15303)
T6 construct: purchased Eurofins DiscoverX KINOMEscan (scanTK)

[7] = target: T7, KIT (Homo sapiens, UniProt P10721)
T7 construct: purchased Eurofins DiscoverX KINOMEscan (scanTK)

[8] = target: T8, RET (Homo sapiens, UniProt P07949)
T8 construct: purchased Eurofins DiscoverX KINOMEscan (scanTK)

[9] = target: T9, RET(V804M) (Homo sapiens, UniProt P07949, V804M)
T9 construct: purchased Eurofins DiscoverX KINOMEscan (scanTK)

[10] = target: T10, TRKC (Homo sapiens, UniProt Q16288)
T10 construct: purchased Eurofins DiscoverX KINOMEscan (scanTK)

[11] = @1000nM, TRKC, read-out: %Control
[12] = TRKC, read-out: %Control @1000nM

T10 sequence (Q16288 32-839): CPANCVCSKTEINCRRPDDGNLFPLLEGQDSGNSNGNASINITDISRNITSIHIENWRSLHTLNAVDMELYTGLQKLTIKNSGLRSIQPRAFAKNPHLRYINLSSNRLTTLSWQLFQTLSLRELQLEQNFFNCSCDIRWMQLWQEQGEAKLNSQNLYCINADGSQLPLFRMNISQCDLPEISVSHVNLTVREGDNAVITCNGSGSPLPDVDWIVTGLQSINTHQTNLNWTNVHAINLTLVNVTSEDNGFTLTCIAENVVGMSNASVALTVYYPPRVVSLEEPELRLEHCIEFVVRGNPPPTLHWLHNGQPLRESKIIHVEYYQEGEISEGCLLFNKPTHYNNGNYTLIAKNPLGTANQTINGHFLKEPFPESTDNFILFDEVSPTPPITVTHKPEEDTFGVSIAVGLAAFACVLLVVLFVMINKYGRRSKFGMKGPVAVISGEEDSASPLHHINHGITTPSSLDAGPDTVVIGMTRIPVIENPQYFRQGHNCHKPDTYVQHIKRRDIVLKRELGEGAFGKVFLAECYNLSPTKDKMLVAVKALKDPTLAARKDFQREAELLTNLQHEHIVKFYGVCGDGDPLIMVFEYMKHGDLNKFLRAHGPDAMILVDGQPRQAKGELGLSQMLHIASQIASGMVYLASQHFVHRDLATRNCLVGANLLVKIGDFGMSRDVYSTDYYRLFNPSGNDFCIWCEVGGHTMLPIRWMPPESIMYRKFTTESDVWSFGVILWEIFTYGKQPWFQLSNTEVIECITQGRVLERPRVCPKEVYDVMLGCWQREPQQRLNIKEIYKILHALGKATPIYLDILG
T9 sequence (P07949 29-1114 V804M): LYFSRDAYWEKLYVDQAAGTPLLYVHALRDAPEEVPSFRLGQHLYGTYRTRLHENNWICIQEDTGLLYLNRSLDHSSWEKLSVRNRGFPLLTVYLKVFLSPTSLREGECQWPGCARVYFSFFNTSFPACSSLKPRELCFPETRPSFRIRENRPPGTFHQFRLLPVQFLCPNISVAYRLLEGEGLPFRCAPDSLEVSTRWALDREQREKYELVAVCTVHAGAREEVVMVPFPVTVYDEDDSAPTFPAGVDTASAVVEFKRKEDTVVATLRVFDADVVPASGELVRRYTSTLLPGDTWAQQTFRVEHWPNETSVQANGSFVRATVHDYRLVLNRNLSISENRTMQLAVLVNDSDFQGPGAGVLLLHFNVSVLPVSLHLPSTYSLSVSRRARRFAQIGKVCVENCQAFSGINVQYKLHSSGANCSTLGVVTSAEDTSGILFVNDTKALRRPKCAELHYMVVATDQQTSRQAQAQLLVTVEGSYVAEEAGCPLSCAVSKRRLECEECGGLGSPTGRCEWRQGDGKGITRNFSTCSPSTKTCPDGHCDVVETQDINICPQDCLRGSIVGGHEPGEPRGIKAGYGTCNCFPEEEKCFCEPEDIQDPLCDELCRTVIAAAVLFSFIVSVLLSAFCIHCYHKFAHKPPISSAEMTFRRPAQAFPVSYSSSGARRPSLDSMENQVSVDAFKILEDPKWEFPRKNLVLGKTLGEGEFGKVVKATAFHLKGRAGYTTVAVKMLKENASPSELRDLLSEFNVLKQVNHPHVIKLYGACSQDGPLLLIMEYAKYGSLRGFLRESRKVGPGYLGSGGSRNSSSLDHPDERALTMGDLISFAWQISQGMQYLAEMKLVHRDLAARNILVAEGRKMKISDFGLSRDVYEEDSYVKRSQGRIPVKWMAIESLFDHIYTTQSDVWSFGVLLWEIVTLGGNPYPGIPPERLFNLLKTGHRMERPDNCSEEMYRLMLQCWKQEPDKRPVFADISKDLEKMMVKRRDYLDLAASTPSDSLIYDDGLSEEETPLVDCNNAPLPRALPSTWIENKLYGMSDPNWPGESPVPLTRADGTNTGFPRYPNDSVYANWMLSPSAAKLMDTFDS
T2 sequence (P41240 whole entry): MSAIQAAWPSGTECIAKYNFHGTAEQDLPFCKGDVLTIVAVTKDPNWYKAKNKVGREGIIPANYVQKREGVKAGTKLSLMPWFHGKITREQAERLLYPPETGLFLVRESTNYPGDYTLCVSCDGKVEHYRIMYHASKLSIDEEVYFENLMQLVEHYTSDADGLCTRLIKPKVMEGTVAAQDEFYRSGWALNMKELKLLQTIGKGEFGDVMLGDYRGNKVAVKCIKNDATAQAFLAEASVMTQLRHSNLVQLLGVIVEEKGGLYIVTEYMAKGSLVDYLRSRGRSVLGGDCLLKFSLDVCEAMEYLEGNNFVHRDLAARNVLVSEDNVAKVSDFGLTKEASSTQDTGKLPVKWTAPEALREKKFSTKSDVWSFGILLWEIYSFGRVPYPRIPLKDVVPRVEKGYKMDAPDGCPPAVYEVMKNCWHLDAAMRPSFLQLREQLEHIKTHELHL
T1 sequence (P00519 whole entry): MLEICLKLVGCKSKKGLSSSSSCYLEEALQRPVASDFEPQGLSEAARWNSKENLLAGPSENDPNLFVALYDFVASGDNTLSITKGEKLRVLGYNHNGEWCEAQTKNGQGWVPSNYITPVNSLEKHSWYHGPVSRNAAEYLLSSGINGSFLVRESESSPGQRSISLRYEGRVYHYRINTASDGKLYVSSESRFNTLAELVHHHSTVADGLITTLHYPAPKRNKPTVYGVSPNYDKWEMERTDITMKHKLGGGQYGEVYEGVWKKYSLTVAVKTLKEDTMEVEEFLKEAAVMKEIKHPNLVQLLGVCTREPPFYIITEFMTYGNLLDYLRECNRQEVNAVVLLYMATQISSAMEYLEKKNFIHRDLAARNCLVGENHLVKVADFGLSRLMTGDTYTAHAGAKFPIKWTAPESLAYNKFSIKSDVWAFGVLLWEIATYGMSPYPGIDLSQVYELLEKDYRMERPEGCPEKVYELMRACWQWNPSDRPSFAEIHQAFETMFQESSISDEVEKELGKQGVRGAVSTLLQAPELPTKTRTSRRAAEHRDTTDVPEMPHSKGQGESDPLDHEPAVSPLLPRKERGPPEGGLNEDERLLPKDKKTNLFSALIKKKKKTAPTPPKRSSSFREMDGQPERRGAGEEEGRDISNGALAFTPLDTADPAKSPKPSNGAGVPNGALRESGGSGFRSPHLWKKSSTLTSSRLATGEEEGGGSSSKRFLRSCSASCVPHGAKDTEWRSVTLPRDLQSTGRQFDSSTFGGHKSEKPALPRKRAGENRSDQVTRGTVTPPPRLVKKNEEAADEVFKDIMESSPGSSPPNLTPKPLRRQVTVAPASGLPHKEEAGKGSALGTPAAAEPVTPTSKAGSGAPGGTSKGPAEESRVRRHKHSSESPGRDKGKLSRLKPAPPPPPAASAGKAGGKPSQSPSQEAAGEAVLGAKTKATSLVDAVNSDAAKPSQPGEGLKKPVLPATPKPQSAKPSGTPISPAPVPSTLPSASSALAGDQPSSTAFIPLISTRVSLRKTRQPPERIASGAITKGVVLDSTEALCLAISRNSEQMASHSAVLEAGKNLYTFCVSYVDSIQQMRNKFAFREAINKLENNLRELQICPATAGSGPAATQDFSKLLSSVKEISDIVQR
T6 sequence (Q15303 26-1308): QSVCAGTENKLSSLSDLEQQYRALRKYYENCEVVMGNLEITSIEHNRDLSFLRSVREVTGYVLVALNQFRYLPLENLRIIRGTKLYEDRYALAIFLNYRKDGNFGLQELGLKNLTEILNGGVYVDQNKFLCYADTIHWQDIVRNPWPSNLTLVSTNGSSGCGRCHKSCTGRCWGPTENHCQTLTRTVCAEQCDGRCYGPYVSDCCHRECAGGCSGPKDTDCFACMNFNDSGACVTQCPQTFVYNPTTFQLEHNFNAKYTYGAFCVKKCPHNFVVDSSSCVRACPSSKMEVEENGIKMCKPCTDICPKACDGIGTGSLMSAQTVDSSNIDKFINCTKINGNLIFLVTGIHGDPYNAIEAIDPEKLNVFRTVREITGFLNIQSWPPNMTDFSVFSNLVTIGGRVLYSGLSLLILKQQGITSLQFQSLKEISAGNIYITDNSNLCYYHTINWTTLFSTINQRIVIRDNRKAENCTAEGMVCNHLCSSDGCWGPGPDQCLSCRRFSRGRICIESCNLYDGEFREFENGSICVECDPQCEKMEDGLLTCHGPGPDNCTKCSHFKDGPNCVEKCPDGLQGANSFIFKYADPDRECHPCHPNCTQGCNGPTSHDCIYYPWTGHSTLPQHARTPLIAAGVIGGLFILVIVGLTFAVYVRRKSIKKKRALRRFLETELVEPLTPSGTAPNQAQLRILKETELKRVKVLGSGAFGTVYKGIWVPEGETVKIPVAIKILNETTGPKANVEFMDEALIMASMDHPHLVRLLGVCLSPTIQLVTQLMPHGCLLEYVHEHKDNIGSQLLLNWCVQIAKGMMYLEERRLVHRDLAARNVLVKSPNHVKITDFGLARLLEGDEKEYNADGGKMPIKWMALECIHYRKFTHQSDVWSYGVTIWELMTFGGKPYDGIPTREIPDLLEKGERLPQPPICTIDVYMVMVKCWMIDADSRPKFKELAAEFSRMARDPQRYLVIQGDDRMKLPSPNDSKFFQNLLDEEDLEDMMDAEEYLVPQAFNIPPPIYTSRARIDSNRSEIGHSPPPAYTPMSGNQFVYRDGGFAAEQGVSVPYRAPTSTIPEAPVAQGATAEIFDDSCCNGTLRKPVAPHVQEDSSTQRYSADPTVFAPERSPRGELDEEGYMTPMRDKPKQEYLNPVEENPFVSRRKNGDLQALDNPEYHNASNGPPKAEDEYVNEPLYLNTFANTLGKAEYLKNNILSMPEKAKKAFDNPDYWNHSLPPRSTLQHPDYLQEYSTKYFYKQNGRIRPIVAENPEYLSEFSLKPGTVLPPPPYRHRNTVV
T8 sequence (P07949 29-1114): as the sequence (P07949 29-1114 V804M) above, with M776V counted along it

| Structure (SMILES) | difference in %Control from compound Ib at 1 µM ([1]; @1000nM) | remaining binding at 1 µM ([1]; @1000nM, read-out: %Control) | remaining binding at 1 µM ([1]; read-out: %Control @1000nM) | difference in %Control from reference compound Ib at 1 µM ([2]; @1000nM) | remaining binding at 1 µM ([2]; @1000nM, read-out: %Control) | remaining binding at 1 µM ([2]; read-out: %Control @1000nM) | difference in % of control versus compound Ib at 1 µM ([3]; @1000nM) | remaining binding at 1 µM ([3]; @1000nM, read-out: %Control) | remaining binding at 1 µM ([4]; @1000nM, read-out: %Control) | remaining binding at 1 µM ([4]; read-out: %Control @1000nM) | remaining binding at 1 µM ([5]; @1000nM, read-out: %Control) | remaining binding at 1 µM ([5]; read-out: %Control @1000nM) | remaining binding at 1 µM ([6]; @1000nM, read-out: %Control) | remaining binding at 1 µM ([6]; read-out: %Control @1000nM) | remaining binding at 1 µM ([7]; @1000nM, read-out: %Control) | remaining binding at 1 µM ([7]; read-out: %Control @1000nM) | remaining binding at 1 µM ([8]; @1000nM, read-out: %Control) | remaining binding at 1 µM ([8]; read-out: %Control @1000nM) | remaining binding at 1 µM ([9]; @1000nM, read-out: %Control) | remaining binding at 1 µM ([9]; read-out: %Control @1000nM) | also measured |
| --- | --- | --- | --- | --- | --- | --- | --- | --- | --- | --- | --- | --- | --- | --- | --- | --- | --- | --- | --- | --- | --- |
| Cc1cnc(S(C)(=O)=O)nc1N1CCCC(n2nc(-c3ccc(Oc4ccccc4)cc3)c3c(N)ncnc32)C1 (stereo not shown) [Compound 8a, 1-(1-(5-Methyl-2-(methylsulfonyl)pyrimidin-4-yl)piperidin-3-yl)-3-(4-phenoxyphenyl)-1H-pyrazolo[3,4-d]pyrimidin-4-amine] | 20% | 80% | 80% | 2.1% | 6.6% | 6.6% | 69.5% | 70% | 82% | 82% | 24% | 24% | 64% | 64% | 61% | 61% | 56% | 56% | 93% | 93% | remaining binding at 1 µM ([3]; read-out: %Control @1000nM): 70%; difference in %Control versus compound Ib at 1 µM ([4]; @1000nM): 13%; difference in %Control versus compound Ib at 1 µM ([5]; @1000nM): 6%; difference in %Control versus compound Ib at 1 µM ([6]; @1000nM): 64%; difference in %Control versus compound Ib at 1 µM ([7]; @1000nM): 20%; difference in %Control versus compound Ib at 1 µM ([10]; @1000nM, TRKC): -17%; remaining binding at 1 µM [10, 11]: 78%; remaining binding at 1 µM [10, 12]: 78% |
| CCOC(=O)c1cnc(S(C)(=O)=O)nc1N1CCC[C@@H](n2nc(-c3ccc(Oc4ccccc4)cc3)c3c(N)ncnc32)C1 [Compound 8c, Ethyl (R)-4-(3-(4-Amino-3-(4-phenoxyphenyl)-1H-pyrazolo[3,4-d]pyrimidin-1-yl)piperidin-1-yl)-2-(methylsulfonyl)pyrimidine-5-carboxylate] | -3% | 57% | 57% | 25.5% | 30% | 30% | 72.5% | 73% | 88% | 88% | 72% | 72% | 5.2% | 5.2% | 93% | 93% | 84% | 84% | 100% | 100% | remaining binding at 1 µM ([3]; read-out: %Control @1000nM): 73%; difference in %Control versus compound Ib at 1 µM ([4]; @1000nM): 19%; difference in %Control versus compound Ib at 1 µM ([5]; @1000nM): 54%; difference in %Control versus compound Ib at 1 µM ([6]; @1000nM): 5.15%; difference in %Control versus compound Ib at 1 µM ([7]; @1000nM): 52%; difference in %Control versus compound Ib at 1 µM ([10]; @1000nM, TRKC): -18%; remaining binding at 1 µM [10, 11]: 77%; remaining binding at 1 µM [10, 12]: 77% |
| COC(=O)c1cnc(S(C)(=O)=O)nc1N1CCCC(n2nc(-c3ccc(Oc4ccccc4)cc3)c3c(N)ncnc32)C1 (stereo not shown) [Compound 8b, Methyl 4-(3-(4-Amino-3-(4-phenoxyphenyl)-1H-pyrazolo[3,4-d]pyrimidin-1-yl)piperidin-1-yl)-2-(methylsulfonyl)pyrimidine-5-carboxylate] | 19% | 79% | 79% | 21.5% | 26% | 26% | 41.5% | 42% | 77% | 77% | 8.9% | 8.9% | 0.55% | 0.55% | 71% | 71% | 56% | 56% | 90% | 90% | remaining binding at 1 µM ([3]; read-out: %Control @1000nM): 42%; difference in %Control versus compound Ib at 1 µM ([4]; @1000nM): 8%; difference in %Control versus compound Ib at 1 µM ([5]; @1000nM): -9.1%; difference in %Control versus compound Ib at 1 µM ([6]; @1000nM): 0.5%; difference in %Control versus compound Ib at 1 µM ([7]; @1000nM): 30%; difference in %Control versus compound Ib at 1 µM ([10]; @1000nM, TRKC): -17%; remaining binding at 1 µM [10, 11]: 78%; remaining binding at 1 µM [10, 12]: 78% |
| CNC(=O)c1cnc(S(C)(=O)=O)nc1N1CCCC(n2nc(-c3ccc(Oc4ccccc4)cc3)c3c(N)ncnc32)C1 (stereo not shown) [Compound 8d, 4-(3-(4-Amino-3-(4-phenoxyphenyl)-1H-pyrazolo[3,4-d]pyrimidin-1-yl)piperidin-1-yl)-N-methyl-2-(methylsulfonyl)pyrimidine-5-carboxamide] | -5% | 55% | 55% | 3.6% | 8.1% | 8.1% | 18.6% | 19% | 93% | 93% | 34% | 34% | 0.1% | 0.1% | 99% | 99% | 31% | 31% | 100% | 100% | remaining binding at 1 µM ([3]; read-out: %Control @1000nM): 19%; difference in %Control versus compound Ib at 1 µM ([4]; @1000nM): 24%; difference in %Control versus compound Ib at 1 µM ([5]; @1000nM): 16%; difference in %Control versus compound Ib at 1 µM ([6]; @1000nM): 0.05%; difference in %Control versus compound Ib at 1 µM ([7]; @1000nM): 58%; difference in %Control versus compound Ib at 1 µM ([10]; @1000nM, TRKC): -3%; remaining binding at 1 µM [10, 11]: 92%; remaining binding at 1 µM [10, 12]: 92% |
| C=CC(=O)N1CCC[C@@H](n2nc(-c3ccc(Oc4ccccc4)cc3)c3c(N)ncnc32)C1 [Compound 1g, Ibrutinib, reference compound] |  | 60% | 60% |  | 4.5% | 4.5% |  |  | 69% | 69% | 18% | 18% | 0.05% | 0.05% | 41% | 41% | 12% | 12% | 100% | 100% | remaining binding at 1 µM ([10]; read-out: %Control): 95%; remaining binding at 1 µM ([10]; read-out: %Control @1000nM): 95% |

— paper PMC11345841, “Exploring 2-Sulfonylpyrimidine Warheads as Acrylamide Surrogates for Targeted Covalent Inhibition: A BTK Story” (Journal of Medicinal Chemistry, 2024)
